Results reported in US4820828A, “Cinnamohydroxamic acids” (Ortho Pharmaceutical Corporation, priority 1987, dated 1989).
Where two headings read alike, the source gives them in different places.

What was measured:
5-lipoxygenase = target: T1, 5-lipoxygenase (Rattus norvegicus, UniProt P12527); experiment: Inhibition of 5-lipoxygenase in a cell-free homogenate of RBL-1 cells (production of lipoxygenase products from 14C-arachidonic acid); assay type: biochemical; details: rat RBL-1 40,000 xg supernatant; for IC50: 50% inhibition of lipoxygenase product generation
T1 construct: The cell-free homogenate was prepared by sonication of the cells followed by centrifugation at 40,000 xg; endogenous in cells; host or cells: RBL-1 (rat basophilic leukemia) cells, 40,000 xg supernatant of the sonicated homogenate
T1 sequence (P12527 1-673): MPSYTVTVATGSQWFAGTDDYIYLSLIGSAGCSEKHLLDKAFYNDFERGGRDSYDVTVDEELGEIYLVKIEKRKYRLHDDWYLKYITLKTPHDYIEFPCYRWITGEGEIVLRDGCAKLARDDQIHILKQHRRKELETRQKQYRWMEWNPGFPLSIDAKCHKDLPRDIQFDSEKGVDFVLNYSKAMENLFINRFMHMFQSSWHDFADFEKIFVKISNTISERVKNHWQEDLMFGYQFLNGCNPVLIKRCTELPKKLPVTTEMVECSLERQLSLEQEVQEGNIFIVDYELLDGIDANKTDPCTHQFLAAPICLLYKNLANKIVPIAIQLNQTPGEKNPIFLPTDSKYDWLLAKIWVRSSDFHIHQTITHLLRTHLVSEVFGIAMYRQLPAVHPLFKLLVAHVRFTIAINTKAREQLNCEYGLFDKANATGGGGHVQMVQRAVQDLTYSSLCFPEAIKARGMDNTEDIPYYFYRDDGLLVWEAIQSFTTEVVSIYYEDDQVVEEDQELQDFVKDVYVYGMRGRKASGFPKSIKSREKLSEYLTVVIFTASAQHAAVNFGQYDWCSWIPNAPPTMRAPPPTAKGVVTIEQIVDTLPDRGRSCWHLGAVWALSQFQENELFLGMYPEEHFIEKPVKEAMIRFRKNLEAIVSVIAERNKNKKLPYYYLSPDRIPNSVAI
Experimental: The inhibition of 5-lipoxygenase was tested in a cell-free homogenate by the procedure of Jakschik, B. et al., Biochem.Biophys.Res.Comm. 95, 103 (1980). Basically, rat basophilic leukemia cells (RBL-1 cells) were maintained in culture in a suitable medium, and were collected by centrifugation prior to assay. The cell-free homogenate was prepared by sonication of the cells followed by centrifugation at 40,000 xg. The CaCl2 dependent production of lipoxygenase products from ^14 C-arachidonic acid in the 40,000 xg supernatant was monitored in the presence of buffer (or other vehicle) or drug. Products were isolated by acidification and extraction, followed by thin layer chromatography. Radioactive areas corresponding to authentic lipoxygenase products were quantitated by liquid scintillation counting. Data was reported as the IC50, the concentration causing 50% inhibition of the generation of lipoxygenase products. The results are shown in Table II as the percent inhibition at 3 μM or the amount of compound necessary to cause 50% inhibition.

[1] = system: Arachidonate Induced Bronchospasm; experiment: Pulmonary mechanics assay: inhibition of arachidonate induced bronchospasm in anesthetized guinea pigs; assay type: in vivo, guinea pig (male Hartley); details: Cavia porcellus, guinea pig, % inhibition of control; for inhibition in vivo at 15 mg/kg: dose 15 mg/kg IV; for inhibition in vivo at 10 mg/kg: dose 10 mg/kg ID; for inhibition in vivo at 100 mg/kg: dose 100 mg/kg ID; for inhibition in vivo at 50 mg/kg: dose 50 mg/kg ID; for inhibition in vivo at 25 mg/kg: dose 25 mg/kg ID
Experimental: The bronchodilating activity of the compounds was tested in a pulmonary mechanics assay. Basically, male Hartley guinea pigs (~400-500 g) were anesthetized with urethane (2 g/kg, i.p.) and placed in a whole body plethysmograph. Cannulations of a jugular vein and carotid artery were performed for compound administration and monitoring blood presure, respectively. The trachea was cannulated for respiration at a constant volume via a miniature starling pump. A Validyne differential pressure transducer (±20 cm H2 O) sensed transpleural pressure via a 15 gauge needle inserted into the pleural cavity and a sidearm from the tracheal cannula. Tidal volume was sensed by another Validyne differential pressure transducer (±2 cm H2 O) from pressure changes inside the plethysmograph. An on-line Buxco pulmonary mechanics computer calculated air flow, dynamic lung compliance and lung resistance. The values were recorded on a print-out.
The guinea pigs were pretreated with succinyl choline (1.2 mg/kg, i.v.) to arrest spontaneous respiration. A control challenge of arachidonic acid (0.5-1.0 mg/kg, i.v.) was administered, and the animals were then dosed with the test compound by various routes. At least 10 minutes were allowed to expire between arachidonic acid challenges. A second challenge was given and compared to the control response. This comparison was indicative of cyclooxygenase inhibition. Indomethacin (10 mg/kg, i.v.) was administered immediately after the second challenge. A third challenge of a higher dose of arachidonic acid (5-10 mg/kg, i.v.) was given. This response was induced by SRS-A and compared to the responses elicited by a separate control group of animals. Activity was indicative of lipoxygenase inhibition. Propranolol (0.005 mg/kg, i.v.) may be given prior to the third challenge to enhance the response to SRS-A.
Bronchoconstriction induced by arachidonic acid with or without indomethacin was expressed as maximum percent change in dynamic lung compliance (Cdyn) and maximum percent increase in lung resistance (RL). Each guinea pig served as its own control for cyclooxygenase evaluation, while a treated group was compared to a control group for lipoxygenase evaluation. The results are shown in Table II and are expressed as the percent inhibition of control.

[2] = with indomethacin (10 mg/kg, i.v.), read-out: Bronchodilating Activity, % Inhibition of Arachidonate Induced Bronchospasm, with Indomethacin
[3] = without indomethacin, read-out: Bronchodilating Activity, % Inhibition of Arachidonate Induced Bronchospasm, without Indomethacin
[4] = iv, with indomethacin (10 mg/kg, i.v.), read-out: Bronchodilating Activity, % Inhibition of Arachidonate Induced Bronchospasm, with Indomethacin

Row | inhibition at 3 µM (5-lipoxygenase) [%] | Structure (SMILES) | inhibition in vivo at 15 mg/kg [1, 2] [%] | inhibition in vivo at 15 mg/kg [1, 3] [%] | also measured
1 | 53 | COc1ccc(OC)c(/C=C/C(=O)N(C)O)c1 [Example 2, 2,5-Dimethoxy-N-methylcinnamohydroxamic acid] | 49 | 65 | 
2 | 89 | COc1ccc(/C=C/C(=O)N(C)O)cc1OC [Example 4, 3,4-Dimethoxy-N-methylcinnamohydroxamic acid] | 90 | 82 | IC50 (5-lipoxygenase): 600 nM
3 | 88 | CN(O)C(=O)/C=C/c1ccc(Cl)cc1Cl [Example 14, 2,4-Dichloro-N--methylcinnamohydroxamic acid] |  |  | 
4 | 50 | CN(O)C(=O)/C=C/c1ccccc1 [Example 17, N--Methylcinnamohydroxamic acid] |  |  | inhibition in vivo at 50 mg/kg [1, 4]: 0%; inhibition in vivo at 50 mg/kg [1, 3]: -35%
5 | 100 | COc1cc(/C=C/C(=O)N(C)O)cc(OC)c1 [Example 18, 3,5-Dimethoxy-N--methylcinnamohydroxamic acid] | 78 | 48 | 
6 | 44 | COc1cccc(/C=C/C(=O)N(C)O)c1OC [Example 19, 2,3-Dimethoxy-N--methylcinnamohydroxamic acid] | 70 | 34 | 
7 | 100 | COc1ccc(/C=C/C(=O)N(C)O)c(OC)c1 [Example 20, 2,4-Dimethoxy-N--methylcinnamohydroxamic acid] |  |  | IC50 (5-lipoxygenase): 430 nM; inhibition in vivo at 25 mg/kg [1, 4]: 46%; inhibition in vivo at 25 mg/kg [1, 3]: 46%
8 | 65 | CN(O)C(=O)/C=C/c1cc(C(C)(C)C)c(O)c(C(C)(C)C)c1 [Example 27, 3,5-Di-t-butyl-4-hydroxy-N--methyl-cinnamo-hydroxamic acid] | 89 | 56 | 

Second part, the compound before the results:

Row | Structure (SMILES) | inhibition at 3 µM (5-lipoxygenase) [%] | inhibition in vivo at 15 mg/kg [1, 2] [%] | inhibition in vivo at 15 mg/kg [1, 3] [%] | also measured
9 | CN(O)C(=O)/C=C/c1ccc(F)cc1 [Example 1, 4-Fluoro-N-methylcinnamohydroxamic acid] | 30 |  |  | 
10 | COc1cc(/C=C/C(=O)N(C)O)cc(OC)c1OC [Example 3, 3,4,5-Trimethoxy-N-methycinnamohydroxamic acid] | 91 | 89 | 0 | 
11 | CN(O)C(=O)/C=C/c1ccc(Cl)c(O)c1 [Example 5, 4-Chloro-3-hydroxy-N-methylcinnamohydroxamic acid] | 35 |  |  | 
12 | COc1ccc(/C=C/C(=O)NO)cc1OC [Example 6, 3,4-Dimethoxycinnamohydroxamic acid] | 17 |  |  | inhibition in vivo at 10 mg/kg [1, 4]: 61%; inhibition in vivo at 10 mg/kg [1, 3]: 77%
13 | Cc1ccc(/C=C/C(=O)N(C)O)cc1 [Example 7, N,4-Dimethylcinnamohydroxamic acid] |  | 89 | 96 | IC50 (5-lipoxygenase): 550 nM; inhibition in vivo at 100 mg/kg [1, 4]: 0%; inhibition in vivo at 100 mg/kg [1, 3]: 59%
14 | COc1ccccc1/C=C/C(=O)N(C)O [Example 8, 2-Methoxy-N--methylcinnamohydroxamic acid] | 66 | 73 | 94 | inhibition in vivo at 50 mg/kg [1, 4]: 58%; inhibition in vivo at 50 mg/kg [1, 3]: -76%
15 | COc1ccccc1/C=C\C(=O)N(C)O [Example 9, Cis-2-methoxy-N--methylcinnamohydroxamic acid] | 59 | 36 | 29 | 
16 | COc1cc(/C=C/C(=O)N(C)O)cc(OC)c1O [Example 10, 3,5-Dimethoxy-4-hydroxy-N--methylcinnamohydroxamic acid] | 17 |  |  | 
17 | CN(O)C(=O)/C=C/c1ccc2c(c1)OCO2 [Example 12, 3,4-Methylenedioxy-N--methylcinnamohydroxamic acid] | 53 | 58 | 15 | 
18 | CN(O)C(=O)/C=C/c1ccc2c(c1)OCCO2 [Example 13, 3,4-(1,2-Ethylenedioxy)-N--methylcinnamohydroxamic acid] | 53 |  |  | 
19 | CN(O)C(=O)/C=C/c1c(Cl)cccc1Cl [Example 15, 2,6-Dichloro-N--methylcinnamohydroxamic acid] | 24 |  |  | 
20 | CN(O)C(=O)/C=C/c1ccc(Cl)c(Cl)c1 [Example 16, 3,4-Dichloro-N--methylcinnamohydroxamic acid] | 87 | 86 | 62 | 
21 | COc1cccc(OC)c1/C=C/C(=O)N(C)O [Example 22, 2,6-Dimethoxy-N--methylcinnamohydroxamic acid] | 41 |  |  | 
22 | CN(O)C(=O)/C=C/c1ccc(Cl)c([N+](=O)[O-])c1 [Example 23, 4-Chloro-3-nitro-N--methylcinnamohydroxamic acid] | 30 |  |  | 
23 | COc1cccc(/C=C/C(=O)N(C)O)c1 [Example 24, 3-Methoxy-N--methylcinnamohydroxamic acid] | 54 | 66 | 28 | inhibition in vivo at 50 mg/kg [1, 4]: 49%; inhibition in vivo at 50 mg/kg [1, 3]: 0%
24 | COc1ccc(/C=C/C(=O)N(C)O)cc1 [Example 25, 4-Methoxy-N--methylcinnamohydroxamic acid] |  | 29 | 0 | IC50 (5-lipoxygenase): 1300 nM
25 | CN(O)C(=O)/C=C/c1ccc(Cl)cc1 [Example 26, 4-Chloro-N--methylcinnamohydroxamic acid] |  | 70 | 87 | 
